According to patent publication US20170165259A1, “COMBINED MODULATION OF IRE1” (THE REGENTS OF THE UNIVERSITY OF CALIFORNIA, priority 2014, published 2017):

Legend:
IRE1α* [1] = biological target: T1, IRE1α* (Homo sapiens, UniProt O75460); assay: XBP1 RNA minisubstrate (FRET-quenched) RNase assay; format: biochemical; conditions: IRE1α*
T1 construct: human IRE1α (residues 469-977, IRE1α*); made in house; host or cells: SF9 insect cells, Bac-to-Bac baculovirus

[2] = tested on: Ins2^+/Akita (Akita) mouse; assay: Akita mouse chronic efficacy study; format: in vivo; conditions: 49 days from initial injection
Method: FIGS. 17A-17C. […] (FIGS. 17A-17B) Random insulin and C-peptide levels in Ins2^+/Akita mice on Day 58 (21 d post injections). KIRA6 (5 mg/kg)(n=5) and vehicle (n=4). (FIG. 17C) Total β-cell area as a percentage of total pancreas area on Day 55 (18 d post injections). KIRA6 (5 mg/kg)(n=6) and vehicle (n=3).
Based on low micromolar KIRA6 needed for protection in cell culture, we chose i.p. dosing regimens of 5 or 10 mg/kg b.i.d for Akita chronic efficacy studies to provide similar exposure. We injected KIRA6 into randomized 3-week old male Akita mice when their random blood glucose levels were at prediabetic range (˜200 mg/dl).
[…] and C57BL/6 Ins2^WT/C96Y (Ins2^+/Akita) mice were obtained from Jackson Laboratories. Glucose levels were measured from tail snips obtained between 9:00 and 11:00 AM using a glucometer (Nova Statstrip Xpress, Data Sciences International). Serum insulin and C-peptide levels were measured using mouse ultra-sensitive insulin and C-peptide ELISA (Mercodia). […]
Mice were fasted for 17 h before i.p. injection with glucose (2 g/kg of body weight). Blood was collected from the tail, and glucose levels were determined by using a glucometer (Nova Statstrip Xpress, Data Sciences International).
Pancreatic sectioning, staining and analysis were done as described previously (Chintinne et al., 2010). […] A minimum of 2% of the total organ volume was stained and measured. […]

[3] = Pharmacokinetic profile in BALB/c mice; format: in vivo, mouse; conditions: 10 mg/kg
adult rats = assay: Tm-induced acute photoreceptor loss, intravitreal co-injection; format: in vivo; conditions: Tm at 3 μg/ml
Method: […]. […] Rhodopsin mRNA may be an IRE1α RNase substrate since Rhodopsin RNA is cleaved by IRE1α*, but not RNase-dead IRE1α* (N906A), at a primary G/C site with flanking sequence similarity to scission sites in XBP1.
Next, to test whether KIRA6 also provides functional protection, we established a dose-response curve to determine threshold [Tm] that cause functional retinal damage as measured by scotopic electroretinograms (ERG). Based on the results, we injected Tm at 3 μg/ml.
Mice were anaesthetized with 1.5-3% isoflurane, eyes were dilated with 2.5% phenylephrine hydrochloride and 1% tropicamide, and corneas were kept moist with regular application of 2.5% methylcellulose. Eyes were examined using a Micron III retinal imaging system (Phoenix Research Labs). […]
Rats dark-adapted overnight were anesthetized with ketamine (100 mg/ml) and xylazine (20 mg/ml) via intraperitoneal injection in dim red light. […] Briefly, […] flashes of white light of increasing intensities were used to induce bilateral, full-field ERGs; responses were recorded using contact lens electrodes with a UTAS-E 3000 Visual Electrodiagnostic System (LKC Technologies, Inc.). […] Briefly, 10-μsec flashes of white light of increasing intensities were used to induce bilateral, full-field ERGs; responses were recorded using contact lens electrodes with a UTAS-E 3000 Visual Electrodiagnostic System (LKC Technologies, Inc.).

[4] = Compound toxicity / proliferative blocks in cells; format: cell-based
IRE1α* [5] = biological target: T1, IRE1α*; assay: IRE1α* kinase assay (96-well dot blot, 32γ-ATP, STK peptide substrate 2); format: biochemical
Method: FIGS. 16A-16C. Divergent modulation of IRE1α RNase activity using distinct classes of kinase inhibitors. (FIG. 16A) KIRA6 inhibition of IRE1α* kinase activity. IC50 values determined by fitting percent kinase activity (n=3); Urea PAGE of competition cleavage by IRE1α* of XBP1 RNA mini-substrate (FIG. 16B) and α^32P-labeled Ins2 RNA (FIG. 16C), under indicated [KIRA6]; IC50s determined by fitting in-gel fluorescence intensities (XBP1) and phosphorimager (Ins2).
KIRAs are tested for ability to inhibit IRE1α* kinase and RNase activities in vitro. The XBP1 minisubstrate assay shown in FIGS. 1B-1C, is amenable to 96- or 384-well format, and is used to determine RNase IC50s. In parallel, kinase IC50s for all KIRAs are determined in a 96-well dot blot assay with 32γ-ATP and STK peptide substrate 2 as substrates. Time-dependence of inhibition is determined for all electrophile-containing KIRAs. RNase and kinase assays have been used to profile the KIRAs in FIG. 13, showing a strong correlation between kinase and RNase IC50s. […] Thus, the structure-based design strategy uses these two kinases as counter targets (described below).

T1 sequence (O75460 469-977): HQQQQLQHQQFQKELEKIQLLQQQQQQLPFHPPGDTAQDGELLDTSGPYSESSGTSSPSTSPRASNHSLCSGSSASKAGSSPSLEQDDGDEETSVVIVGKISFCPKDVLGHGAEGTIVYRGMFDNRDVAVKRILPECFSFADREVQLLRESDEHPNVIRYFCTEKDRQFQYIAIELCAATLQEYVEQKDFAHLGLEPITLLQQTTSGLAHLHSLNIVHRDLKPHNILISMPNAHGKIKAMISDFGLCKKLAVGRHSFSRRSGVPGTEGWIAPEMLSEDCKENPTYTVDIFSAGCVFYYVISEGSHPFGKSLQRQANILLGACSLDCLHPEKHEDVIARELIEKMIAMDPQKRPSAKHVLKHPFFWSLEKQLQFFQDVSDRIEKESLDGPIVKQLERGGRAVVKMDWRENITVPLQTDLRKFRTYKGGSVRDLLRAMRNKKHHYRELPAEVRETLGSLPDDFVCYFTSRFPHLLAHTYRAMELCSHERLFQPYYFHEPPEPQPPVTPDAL

Question: With `CC(C)(C)c1nc(-c2ccc(NC(=O)Nc3cccc(C(F)(F)F)c3)c3ccccc23)c2c(N)nccn12` [KIRA6, 1-(4-(8-amino-3-tert-butylimidazo[1,5-a]pyrazin-1-yl)naphthalen-1-yl)-3-(3-(trifluoromethyl)phenyl)urea] as the compound, how does the IC50 (IRE1α* [1]) read?
Answer: 210 nM

Question: What about the “body weight vs vehicles” value [2] of the same compound?
Answer: no significant differences in weight from vehicles

Question: What about the general health [2] of the same compound?
Answer: appeared healthy even after 49 days from initial injection

Question: And the clearance ([3]; i.p.)?
Answer: 22.4 mL/min/kg

Question: What about the AUC(0-t) ([3]; mouse, ip, plasma, read-out: AUC 0-24 h) of the same compound?
Answer: 14.3 µM·h

Question: And the Cmax ([3]; mouse, plasma, ip)?
Answer: 3300 nM

Question: What about the half-life ([3]; mouse, plasma, ip) of the same compound?
Answer: 3.9 h

Question: What about the concentration at 4 h ([3]; mouse, plasma, ip, read-out: plasma level at 4 hr) of the same compound?
Answer: 1200 nM

Question: And the concentration at 8 h ([3]; mouse, plasma, ip, read-out: plasma level at 8 hr)?
Answer: 330 nM

Question: And the “scotopic ERG responsiveness” value (adult rats)?
Answer: substantially protects against loss of ERG responsiveness, significantly preserving both a- and b-wave amplitudes

Question: What about the toxicity in cells [4] of the same compound?
Answer: negligible toxicity up to 10 μM

Question: What about the IC50 (IRE1α* [5]) of the same compound?
Answer: 620 nM
